Results: patent US6277383A, “Ryegrass pollen allergen” (University of Melbourne, priority 1995, dated 2001)

How the values were obtained:
MAb 40.1 = assay: Antibody screening of lambda-gt 11 cDNA clones: binding of MAb 40.1; design: key: ++: strongest binding; -: no binding; details: protein expressed by lambda-gt 11 clone in E. coli Y1090, plaque lift
Procedure: (§1) Poly (A+) mRNA isolated from mature rye grass pollen by the phenol method ([…] and Michaels, (1984) Plant Mol. Biol. Rep., 2:24-28) was used to construct a cDNA library in the vector lambda-gt 11. The library was then screened with antibody probes to detect sequences expressing Group I proteins. E. coli […] transfected with 3×10^4 recombinant phages were plated and incubated at 42° C. for 3 h. The plates were overlaid with a dry 132 mm nitrocellulose (NC) filter previously soaked in 10 mm IPTG and transferred to 37° C. After incubation for 3 h the filters were carefully peeled off and incubated in 20 ml per filter of MTBS (10% w/v non-fat milk powder, 50 mm Tris-HCI, pH 7.6, 150 mM Nacl) for 30 min. at room temperature. A second set of NC filters was placed on phage plates and after incubating for 3 h were treated as above. Both sets of NC filters were tested for binding of MAb 40.1 to plaques by the method described in Huynh et al. (1985) In: DNA Cloning, a practical approach, Glover, D. M. (ed.) Vol. 1, pp. 49-78, IRL Press, Oxford, England. The antibody positive plaques were picked, purified, then replated and tested for binding to probes. The positive clones were plaque-purified and tested for IgE binding using sera from grass pollen-allergic subjects. Eighteen clones were selected as encoding proteins recognized by both Lol p I-specific MAbs and IgE antibodies (Table 1). The largest of the cDNA clones, 1.2kb in size, that expressed rye-grass allergenic protein was initially selected for further characterization and sequencing, and designated clone lambda-12R (FIG. 1a).

[1] = system: IgE from sera of allergic indivs.; assay: Screening of lambda-gt 11 cDNA clones for IgE binding; design: species or system human; key: ++: strongest binding; -: no binding; details: protein expressed by lambda-gt 11 clone, plaque lift
Procedure: as §1

[2] = Two dimensional gel electrophoresis of ryegrass pollen proteins (pI); type: physicochemical, Lolium perenne; details: allergen spot on two dimensional gel
Procedure: (§2) Two dimensional (2D)-PAGE was performed in a mini-Protean II 2-D cell (Biorad, Richmond, Calif.) according to the manufacturer instructions. The proteins were diluted 1:1 in 4% CHAPS. […] The first dimension gel was run for 3.5 hours. The econd dimension gel was run for 45 minutes. Proteins on 2D-PAGE gels were silver stained to reveal the protein profile.

[3] = system: IgE affinity purified from recombinant allergens and IgE from whole serum of allergic individuals; assay: Two-dimensional Western blot: IgE binding to allergens; design: species or system human; details: IgE preparations that bind: AP12R, AP13R, AP19R = affinity purified from recombinant Lol p Ib.1 fragment IH, Lol p Ia clone 13R, Lol p Ib.2; TIgE = whole serum
From the text: Serum used in the experiment to identify allergen regions of Lol p Ia and Lol p Ib was collected by Dr. R. Phomley at the Epworth Hospital (Richmond, Australia) from patients with a history of allergy to ryegrass pollen and a positive skin test to ryegrass pollen extract. IgE was affinity-purified from recombinant allergens as previously described (Singh, et al., (1991) Proc. Nat'l Acad. Sci. USA, […]; Example 2) except recombinant proteins were derived from lambda-gt11 culture rather than pGEX cultures.
as §2
Conditions for electrophoresis and Western blotting and for the processing of Western blots with MAbs and IgE were as described by Singh, et al., (1985) Int. Arch. Allergy Appl. Immun., 78:300.

[4] = system: human IgE of individual sera; assay: Peptide dot blot immunoassay: human IgE; type: binding; details: for IgE Binding (symbol): sera diluted 1:4
Procedure: (§3) The peptides were dissolved in water to give a 1.6 mM stock solution. Insoluble peptides were dissolved by sonication (Branson Sonifier 450, USA) for 1 minute.
(§4) The peptides were immobilized onto nitrocellulose (NC) filter by using a modified method published elsewhere (Sithigonglu (1991) J. Immunol. Methods, 141:23-32). Two μl of the peptide stock solutions were spotted on the NC filter (Schleicher & Schuell, W. Germany) about 1 cm apart. After the strips were dried and baked at 80° C. for one hour, they were fixed by exposure, in a tightly sealed plastic box, to vapor from 0.2% glutaraldehyde in PBS at room temperature (18° C.) for one hour. After washing thoroughly with distilled water, the NC filters were blocked with Blotto (10% non-fat dry milk in PBS) for two hours and washed in 1×Tween-PBS (0.1% Tween-20 in PBS) and 2×PBS, five minutes each.
(§5) The peptides were then screened for human IgE and mouse/rabbit IgG epitopes with individual sera (diluted 1:4 in PBS with 0.5% BSA), MAbs FMC A7 (Smart et al. (1983) Int. Arch. Allergy Clin. Immunol. 72: 243) and polyclonal rabbit anti-Lol p Ib antibody. The rabbit anti-sera was a gift from Dr. Jenny Roland, Alfred Hospital, Melbourne, Australia.
(§6) The intensity of each dot blot was measured by densitometer (Pharmacia LKB UltraScan XL, Sweden). Densitometric values greater than two were considered as positive binding in comparison to the background. For every peptide, the sera and antibody values have been added (score/peptide) and divided by the number of positive sera to express the final value as an average (score/sera). Sera C1 and C2 were not grass allergic and were used as negative controls. C refers to crude ryegrass pollen extract (1 μg/dot) as positive control.

[5] = system: Mab FMC-A7 and rabbit polyclonal anti-Lol p Ib antiserum; assay: Peptide dot blot immunoassay: mouse/rabbit IgG; type: binding
Procedure: as §3, §4, §5, §6

MAb 12.3 = assay: Antibody screening of lambda-gt 11 cDNA clones: binding of MAb 12.3; design: key to Binding of MAb 12.3: ++: strongest binding; -: no binding; details: protein expressed by lambda-gt 11 clone in E. coli Y1090, plaque lift
Procedure: as §1

Row | Binding of MAb 40.1 (MAb 40.1) | Binding of MAb 12.3 (MAb 12.3) | Sequence | Binding of IgE from sera of allergic indivs. [1] | pI [2] | IgE binding [3] | IgE Binding (symbol) [4] | Human IgE-reactivity (in words) [4] | Mouse/rabbit IgG-reactivity (in words) [5]
1 | ++ |  | AAATPATPAATPA [Peptide 2] | - | 5.9 | AP13R TIgE |  |  | 
2 | ++ |  | AAEGATPEAKYD [Peptide 13] |  | 7 | TIgE | + (Densitometric values greater than two were considered as positive binding) |  | 
3 |  |  | AALTKAITAMTQA [Peptide 29] |  |  |  | + (Densitometric values greater than two were considered as positive binding) |  | 
4 | ++ |  | AANAPPADKFKI [Peptide 7] | - | 6 | AP12R,AP19R and TIgE | + (Densitometric values greater than two were considered as positive binding) | highest human IgE-reactivity | highest mouse/rabbit IgG-reactivity
5 | - | - | ADAGYTPAAAAT [Peptide 1] | - | 5.5 | AP13R TIgE |  |  | highest mouse/rabbit IgG-reactivity
6 | ++ | ++ | AKYDAFVTALTE [Peptide 14] | ++ | 7.3 | TIgE |  |  | 
7 | - | - | ALTEGLRVIAGA [Peptide 15] | - | 9 | TIgE |  |  | 
8 |  |  | AMTQAQKAGKPA [Peptide 30] |  |  |  | + (Densitometric values greater than two were considered as positive binding) | highest human IgE-reactivity | 
9 |  |  | ATAANAAPTNDK [Peptide 21] |  |  |  | + (Densitometric values greater than two were considered as positive binding) | highest human IgE-reactivity | 
10 | ++ |  | AVKPATEEVPAA [Peptide 17] | - | < 5.65 | TIgE |  |  | 
11 |  |  | ESAFNKALNECT [Peptide 23] |  |  |  | + (Densitometric values greater than two were considered as positive binding) | highest human IgE-reactivity | highest mouse/rabbit IgG-reactivity
12 |  |  | ETYKFIPSLEAA [Peptide 25] |  |  |  | + (Densitometric values greater than two were considered as positive binding) |  | 
13 |  |  | EVKYAVFEAALT [Peptide 28] |  |  |  |  |  | highest mouse/rabbit IgG-reactivity
14 | - | - | FSESSKGLLATS [Peptide 9] | - | 7.2 | AP12R,AP19R and TIgE |  |  | 
15 |  |  | GAATAAAGGYKA [Peptide 34] |  |  |  | + (Densitometric values greater than two were considered as positive binding) | highest human IgE-reactivity | 
16 |  |  | GELQIVDKIDAA [Peptide 19] |  |  |  | + (Densitometric values greater than two were considered as positive binding) | highest human IgE-reactivity | highest mouse/rabbit IgG-reactivity
17 | ++ |  | GFKAAVAAAANA [Peptide 6] | - | 6.45 | AP12R,AP19R and TIgE | + (Densitometric values greater than two were considered as positive binding) |  | 
18 | ++ |  | GKATTDEQKLLE [Peptide 4] | - | 7 | AP13R TIgE |  |  | 
19 | ++ |  | IAGALEVHAVKPA [Peptide 16] | - | < 5.65 | TIgE | + (Densitometric values greater than two were considered as positive binding) | highest human IgE-reactivity | 
20 | - | - | KFKIFEAAFSES [Peptide 8] | - | 6.45 | AP12R,AP19R and TIgE |  |  | 
21 | ++ |  | KLLEDVNAGFKA [Peptide 5] | - | 6 | AP12R,AP19R and TIgE | + (Densitometric values greater than two were considered as positive binding) |  | 
22 | - | - | LATSAAKAPGLI [Peptide 10] | - | 8.3 | AP12R,AP19R and TIgE | + (Densitometric values greater than two were considered as positive binding) |  | 
23 |  |  | NECTGGAYETYK [Peptide 24] |  |  |  | + (Densitometric values greater than two were considered as positive binding) |  | highest mouse/rabbit IgG-reactivity
24 | ++ |  | PGLIPKLNTAYD [Peptide 11] | - | 10.6 | AP12R,AP19R and TIgE |  |  | 
25 | ++ | ++ | TAYDVAYKAAEG [Peptide 12] | ++ | 8.0 | AP12R,AP19R and TIgE |  |  | 
26 | ++ | ++ | VPAAKIPTGELQI [Peptide 18] | ++ |  |  | + (Densitometric values greater than two were considered as positive binding) |  | 
27 |  |  | YAATVAAPEVKY [Peptide 27] |  |  |  | + (Densitometric values greater than two were considered as positive binding) |  | 

Row | Sequence | Binding of MAb 40.1 (MAb 40.1) | Binding of MAb 12.3 (MAb 12.3) | Binding of IgE from sera of allergic indivs. [1] | pI [2] | IgE binding [3] | IgE Binding (symbol) [4] | Human IgE-reactivity (in words) [4] | Mouse/rabbit IgG-reactivity (in words) [5]
28 | AATPAAAGGKAT [Peptide 3] | ++ |  | - | 6.45 | AP13R TIgE |  |  | 
